Test results taken from EP0715517B1, “ESTRENE STEROIDS AS NEU[…] CHANGE IN HUMAN HY[…] AND RELATED PHARMACEUTICAL COMPOSITIONS” (priority 1993, dated 1994).
Entries after “also recorded” stand apart in the source; their conditions may differ.

Assays:
VNO [1] = experiment: Electro-vomeronasogram (EVG) (Example 25); type: in vivo, human; conditions: 100 fmoles
Method: The following electrophysiological studies were performed in 60 clinically normal human volunteers of both sexes (30 male and 30 female) whose ages ranged from 20 to 45 years. No anesthetics were used, and female subjects were excluded if pregnant.
(§1) The stimulation and recording system consists of a "multifunctional miniprobe" described elsewhere (Monti-Bloch, L. and Grosser, B.l. (1991) "Effect of putative pheromones on the electrical activity of the human vomeronasal organ and olfactory epithelium," J. Steroid Biochem. Molec. Biol. 39:573-582.). The recording electrode is a 0.3 mm silver ball attached to a small (0.1 mm) silver wire insulated with Teflon© the surface of the electrode is first treated to produce a silver chloride interface, and is then covered with gelatin It is positioned within a small caliber Teflon© catheter (dia = […]) such that the tip of the electrode protrudes approximately 2 mm. The Teflon© catheter is 10 cm in length and constitutes the terminal extension for a multichannel delivery system which delivers a continuous air stream carrying discreet pulses of chemosensory stimuli. The air stream first passes into a small chamber and is bubbled through a solution containing either a vomeropherin or an olfactant in a diluent or the diluent alone. A solenoid is used to rapidly redirect the air stream from the chamber to a route which bypasses the chamber. This creates a discreet pulse of stimulant in the air stream. A second, outer Teflon® tube with a diameter of 2 mm surrounds the catheter-electrode assemblage, and its central end is connected to an aspirator that provides continuous suction of 3ml/s. This concentric arrangement of the outer suction tube allows the emitted chemosensory stimuli to be localized to an area we call a "minifield" (approx. dia = 1 mm), and it avoids diffusion of substances either to the area outside the intended stimulation site or into the respiratory system. The entire stimulating and recording assemblage may be positioned either on the neurosensory epithelium within the VNO, or on the surface of the olfactory or respiratory epithelium. Electro-vomeronasogram (EVG): Recordings are carried out in a quiet room with the subject supine; the multifunctional miniprobe is initially stabilized within the nasal cavity using a nasal retractor placed in the vestibule. Reference and ground electrodes consist of silver discs (8 mm), both of which are positioned on the glabella.
The entrance to the VNO, or vomeronasal pit, is identified by first dilating the nasal aperture and vestibule. A 6x magnifying binocular loupe with halogen illumination is then used to introduce the tip of the Teflon® catheter and recording electrode assemblage into the VNO opening where it is stabilized at an approximate depth of 1 mm within the vomeronasal passage. Optimal placement of the recording electrode is signaled after testing for an adequate depolarization in response to a test substance.
Electrical signals from the recording electrode are fed to a DC amplifier after which they are digitized, computer monitored, and stored. The peak-to-peak amplitude of the signals is measured, and the area under the depolarization wave is integrated, while continuously monitoring the signal both on the computer screen and on a digital oscilloscope. Artifacts produced by respiratory movements are deleted by training the subjects to practice mouth breathing with velopharyngeal closure. Chemosensory Stimulants: Olfactory test substances are cineole, and 1-carvone; vomeropherins are A, B, C, E and F. (Vomeropherins were supplied by Pherin Corporation, Menlo Park, California), Samples of vomeropherins In concentration of 25-800 fmoles are delivered in the continuous air stream for durations from 300 milliseconds to 1 second. Usually, intervals of 3 to 5 minutes separated each series of short test pulses. […]

[2] = test system: olfactory epithelium (OE); experiment: Electro-olfactgram (EOG) (Example 25); type: in vivo, human; conditions: 20 subjects (10 males, 10 females); 200 fmoles vomeropherins, 400 fmoles olfactants; one second pulses; Fig. 7A
From the text: as §1
Electrical signals from the recording electrode are fed to a DC amplifier after which they are digitized, computer monitored, and stored. The peak-to-peak amplitude of the signals is measured, and the area under the depolarization wave is integrated, while continuously monitoring the signal both on the computer screen and on a digital oscilloscope. […]
Effects of Vomeropherins on the EOG: The summated receptor potential from the olfactory epithelium (OE) was recorded in 20 subjects: 10 males and 10 females. […]

VNO [3] = experiment: Electrodermal activity (EDA) after VNO stimulation (Example 25); type: in vivo, human; conditions: female subjects; p<0.01, n = 30
Method: (§2) Cortical evoked activity was induced by VNO stimulation with vomeropherins, and olfactory stimulation with odorants delivered in 300 ms air pulses. It was recorded using standard electroencephalographic (EEG) electrodes placed at positions Cz-A1 and Tz-A1 of the international […] system; the ground electrode was placed on the mastoid process. Electrodermal activity (EDA) was recorded using standard 8 mm silver electrodes in contact with palmar skin of the medial and ring fingers respectively, through a conductive gel interface. Skin temperature (ST) was recorded by a small (1.0 mm) thermistor probe placed in the right ear lobe. Peripheral arterial pulse (PAP) was monitored with a plethysmograph attached to the tip of the index finger. Respiratory frequency (RF) was measured with an adjustable strain gauge placed around the lower thorax. All electrical signals were DC amplified, digitized (MP-100, Biopac Systems) and continuously monitored utilizing a computer. Statistical Analysis: EVGs or EOGS, peak-to-peak changes and frequency changes of other parameters were measured and statistically analyzed. The significance of the results was determined by either using paired t-tests or analysis of variance (ANOVA). […] Recordings of the EVG were performed on 30 men and 30 women (ages 20 to 45). Vomeropherins were diluted and applied as 1 second pulses to the VNO with […] intervals between pulses when questioned, the subjects were not able to "smell" or otherwise consciously detect any of the vomeropherins.

VNO [4] = experiment: Skin temperature (ST) after VNO stimulation (Example 25); type: in vivo, human
Method: as §2

VNO [5] = experiment: Cortical evoked activity (EEG, alpha cortical activity) after VNO stimulation (Example 25); type: in vivo, human
Method: as §2
[…] […] Synchronization of the EEG was sustained for 1.5 to 2.7 minutes after application of a single pulse of active substance.

VNO [6] = experiment: Comparison of the change in receptor potential induced by two Estrene steroids (Example 23); type: in vivo, human; conditions: 60 picograms; a subject; Fig. 5
Method: 60 picograms of each steroid and of a propylene glycol control were administered to a subject as described in Example 21.

VNO [7] = conditions: 2% lidocaine applied to the respiratory epithelium of the nasal septum; preliminary evidence, Monti-Bloch and Grosser 1991; cited from earlier work

C[C@@]12C=CC[C@H]1[C@@H]1CCC3=CC(=O)CC[C@]3(C)[C@H]1CC2 [B, Androsta-4,16-dien-3-one]
EVG response in the male VNO (in words) (VNO [1]; male subjects, Fig. 6A and Fig. 7): significantly reduced responses in the male VNO
EOG local response of the OE (in words) [2]: the only vomeropherin having significant effect in the OE; also recorded: significant (p<0.01) local response
decrease in EDA (VNO [3]): greater decrease in EDA than A or C
skin temperature (ST) (VNO [4]; 30 female subjects, p<0.01, compared to A and C, Fig. 6H): significant increase in skin temperature
alpha cortical activity (VNO [5]; females, single pulse (200 fmoles), Fig. 6F): increased alpha cortical

COc1ccc2c(c1)CC[C@@H]1[C@@H]2CC[C@]2(C)C=CC[C@@H]12 [D, 3-Methoxy-Estra-1,3,5(10),16-tetraene]
change in receptor potential (VNO [6]): greater change in receptor potential than did 1,3,5(10),16-Estratetraen-3-yl acetate
EVG average response (mean) (VNO [1]; male subjects (ages 20 to 38), 1 second pulses, p<0.01, Fig. 6A): 15.1 mV
skin temperature (ST) (VNO [4]; 30 male subjects, p<0.01, Fig. 6G): significant temperature decrease
alpha cortical activity (VNO [5]; males, 200 fmoles, air pulses 300 ms to 1 sec, Fig. 6E): significantly increased alpha cortical activity; also recorded: strongest effect
latency of increase in alpha cortical activity (VNO [5]; males, 200 fmoles, Fig. 6E): 270 to 380 ms

CCN(CC)CC(=O)Nc1c(C)cccc1C [lidocaine]
effect of local anesthetic on the EVG (VNO [7]): neither blocks nor diminishes the EVG
